The values below come from ChEMBL document CHEMBL1125575, “2-[(2-pyridylmethyl)sulfinyl]-1H-thieno[3,4-d]imidazoles. A novel class of gastric H+/K(+)-ATPase inhibitors” (J Med Chem, 1992).

The structures appear in SMILES notation.

For series [1], the species on record is Oryctolagus cuniculus. Kind of series: cells. It counts as functional, organism-based, Stomach.
Description: In vitro inhibition of 14C amino-pyrine uptake was determined in isolated rabbit gastric glands after dbcAMP stimulation
For series [2], the system named is Canis familiaris. Kind of series: In vivo inhibition of gastric acid secretion was calculated in heidenhain-pouch dog after iv administration of the drug at a dose of 0.3 mg/kg. It counts as functional. The note with it: Canis lupus familiaris, Stomach.
The target of series [3] is Potassium-transporting ATPase alpha chain 1 (Sus scrofa, UniProt P19156).
Description: In vitro inhibitory concentration against H+/K+ ATPase from pig stomach by probit analysis
The species entered for series [4] is Rattus norvegicus. Kind of series: animal or person. The note with it: Stomach, iv, read-out: Inhibition.
Series [5] concerns Canis familiaris. Kind of series: In vivo inhibition of gastric acid secretion was calculated in heidenhain-pouch dog after iv administration of the drug at a dose of 0.5 mg/kg. The note with it: Canis lupus familiaris, Stomach. Format: functional.
For series [6], the system named is Rattus norvegicus. Kind of series: In vivo inhibition of gastric acid secretion was calculated in stomach-lumen perfused rat after iv administration of drug at a dose of 5 mg/kg. It counts as functional.
Another series can be described thus: animal or person. The note with it: Canis lupus familiaris, Stomach, iv, read-out: Inhibition.
Series [7] is filed under the species Canis familiaris. Kind of series: animal or person. To be noted: Canis lupus familiaris, Stomach, intraduodenal, read-out: Inhibition.
The nature of series [8]: Chemical stability at pH 2.0. Format: physicochemical. The note with it: buffer.
A short description of series [9]: Chemical stability at pH 5.0. Format: physicochemical. To be noted: buffer.
Series [10] is described as follows: Chemical stability at pH 7.0. Format: physicochemical. The note with it: buffer.
Series [11] concerns Canis familiaris. Kind of series: Antisecretory activity calculated in heidenhain-pouch dog after iv administration of the drug, values in parenthesis indicates 95% confidence limits. It counts as functional. The note with it: Canis lupus familiaris.
For series [12], the system named is Canis familiaris. Kind of series: Antisecretory activity calculated in heidenhain-pouch dog after id administration of the drug, value in parenthesis indicates 95% confidence limits. It counts as functional. To be noted: Canis lupus familiaris.
The species entered for series [13] is Canis familiaris. Kind of series: animal or person. The note with it: Canis lupus familiaris, iv.
For series [14], the species on record is Oryctolagus cuniculus. Kind of series: In vitro inhibition of 14C amino pyrine uptake was determined in isolated rabbit gastric glands after dbcAMP stimulation. It counts as functional. To be noted: Stomach.
In series [15] the test system is Canis familiaris. Kind of series: Antisecretory activity calculated in heidenhain-pouch dog after id administration of the drug. Format: functional. To be noted: Canis lupus familiaris.
For series [16], the target named is Potassium-transporting ATPase alpha chain 1 (Sus scrofa) (UniProt P19156). Kind of series: Inhibition of H+/K+ ATPase from pig stomach. Format: tissue-based. To be noted: concentration not given here.
Potassium-transporting ATPase alpha chain 1 (Sus scrofa), sequence (P19156 whole entry): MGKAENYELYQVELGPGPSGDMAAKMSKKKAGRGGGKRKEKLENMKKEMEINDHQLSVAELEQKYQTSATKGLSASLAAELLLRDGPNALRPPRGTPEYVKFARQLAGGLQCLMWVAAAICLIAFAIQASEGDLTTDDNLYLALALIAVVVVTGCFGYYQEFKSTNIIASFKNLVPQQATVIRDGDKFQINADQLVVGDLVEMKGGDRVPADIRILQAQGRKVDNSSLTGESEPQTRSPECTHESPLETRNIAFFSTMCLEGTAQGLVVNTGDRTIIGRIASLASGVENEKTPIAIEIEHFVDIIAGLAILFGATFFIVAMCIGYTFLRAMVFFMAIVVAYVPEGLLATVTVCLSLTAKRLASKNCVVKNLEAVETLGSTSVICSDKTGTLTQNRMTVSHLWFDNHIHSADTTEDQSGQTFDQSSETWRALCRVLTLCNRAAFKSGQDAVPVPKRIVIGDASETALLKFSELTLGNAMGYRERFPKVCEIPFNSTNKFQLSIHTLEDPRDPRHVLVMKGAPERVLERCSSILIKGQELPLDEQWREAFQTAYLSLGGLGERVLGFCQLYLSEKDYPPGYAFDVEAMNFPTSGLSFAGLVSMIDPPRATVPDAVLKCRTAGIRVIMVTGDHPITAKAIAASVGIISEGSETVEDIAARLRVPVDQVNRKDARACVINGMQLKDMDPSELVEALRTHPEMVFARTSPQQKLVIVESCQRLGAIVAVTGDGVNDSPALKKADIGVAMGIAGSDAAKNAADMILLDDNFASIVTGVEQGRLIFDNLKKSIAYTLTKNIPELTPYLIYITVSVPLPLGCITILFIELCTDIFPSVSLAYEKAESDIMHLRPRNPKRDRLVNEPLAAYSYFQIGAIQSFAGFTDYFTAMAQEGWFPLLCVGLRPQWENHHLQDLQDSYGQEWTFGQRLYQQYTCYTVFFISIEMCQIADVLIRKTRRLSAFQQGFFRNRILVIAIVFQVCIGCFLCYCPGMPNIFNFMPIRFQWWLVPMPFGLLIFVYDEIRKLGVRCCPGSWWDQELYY

Potassium-transporting ATPase alpha chain 1, sequence (P19156 whole entry): as above
Description for physchem: pKa value of the compound

By IC50 is commonly meant the midpoint of a concentration-inhibition curve. High values mean a need for much substance, low ones inhibition by little substance. On to `[O-][S+](Cc1cc(OCc2ccc(F)cc2)ccn1)c1nc2cscc2[nH]1` (stereo not given), for which the IC50 (in the series filed under Oryctolagus cuniculus [1]; in series [3]) was 0.5 µM each time. In the series on Canis familiaris [2], the inhibition in vivo at 0.3 mg/kg is 80%. In addition, the inhibition in vivo at 0.5 mg/kg in the series listed under Rattus norvegicus [4] worked out at 85%.
With `Cc1ccnc(C[S+]([O-])c2nc3cscc3[nH]2)c1` (stereo not given), the inhibition in vivo at 0.5 mg/kg in the series on Canis familiaris [5] is 72%. Further, the inhibition in vivo at 5 mg/kg with Rattus norvegicus [6] was -67%.
With `Cc1sc(C)c2[nH]c([S+]([O-])Cc3cc(OCC(F)(F)F)ccn3)nc12` (stereo not given), the figures for the IC50 (in the series filed under Oryctolagus cuniculus [1] (Stomach); in [3]) were 3.7 µM and 2 µM, respectively. In addition, the inhibition in vivo at 0.3 mg/kg in “animal or person” is 54%.
For `Cc1c(OCC(F)(F)F)ccnc1C[S+]([O-])c1nc2cscc2[nH]1` (stereo not given), the IC50 in the series filed under Oryctolagus cuniculus [1] (Stomach) amounted to 21 µM. Moreover, the inhibition in vivo at 0.3 mg/kg in the series on Canis familiaris [2] was 57%. The inhibition in vivo at 0.5 mg/kg in the series listed under Rattus norvegicus [4] is 56%.
Broadly, the pKa is the negative logarithm of the acid dissociation constant. Read a low pKa as a stronger acid or weaker base. In turn, `[O-][S+](Cc1cc(OCC(F)(F)F)ccn1)c1nc2cscc2[nH]1` (stereo not given) yielded an IC50 in the series listed under Oryctolagus cuniculus [1] (Stomach) of 3 µM. The molecule also had a pKa in the series “physchem” of 3.83. In the series listed under Canis familiaris [7], the inhibition in vivo at 1 mg/kg was 73%. Besides, in the series “animal or person”, the inhibition in vivo at 0.3 mg/kg amounted to 62%. In addition, the inhibition in vivo at 0.5 mg/kg in the series listed under Rattus norvegicus [4] is 96%.
For `COc1ccnc(C[S+]([O-])c2nc3cscc3[nH]2)c1Br` (stereo not given), in that order: 2 µM, 3.52, -11%, 73% and 71%.
Consider `COc1c(OCC(F)(F)C(F)(F)C(F)(F)C(F)F)ccnc1C[S+]([O-])c1nc2cscc2[nH]1` (stereo not given), for which the IC50 in the series filed under Oryctolagus cuniculus [1] (Stomach) was found to be 1 µM; in [3] it was 12 µM. Also, the inhibition in vivo at 1 mg/kg in the series listed under Canis familiaris [7] is 63%. Also, the inhibition in vivo at 0.5 mg/kg in the series filed under Rattus norvegicus [4] was 64%.
As usually defined, the half-life is the time needed for the level to fall by half in the phase considered. A higher half-life goes with slow decline. For orientation: ED50 means the midpoint of the dose-response relation. As for `[O-][S+](Cc1cc(OCC(F)(F)C(F)(F)C(F)(F)F)ccn1)c1nc2cscc2[nH]1` (stereo not given) [SAVIPRAZOLE], the half-life in series [8] was 0.05 h; in series [9] it was 1.4 h; in [10], 8 h. Besides, the ED50 in the series with Canis familiaris [11] is 0.22 mg/kg. For the same molecule, the IC50 in the series listed under Oryctolagus cuniculus [1] (Stomach) worked out at 1.3 µM. In addition, the pKa in the series “physchem” is 3.73. Also, the inhibition in vivo at 1 mg/kg in the series filed under Canis familiaris [7] amounted to 93%. Also, the inhibition in vivo at 0.3 mg/kg in the series “animal or person” stood at 76%. In addition, in the series filed under Rattus norvegicus [4], the inhibition in vivo at 0.5 mg/kg was 72%.
Turning to `COc1c(OCC(F)(F)C(F)(F)F)ccnc1C[S+]([O-])c1nc2cscc2[nH]1` (stereo not given), the half-life in [8] was 0.183 h; in series [9], 7.8 h; in series [10], 23 h. For the same molecule, the ED50 in the series with Canis familiaris [12] was 0.16 mg/kg; in the series filed under Canis familiaris [13], 0.13 mg/kg. In the series filed under Oryctolagus cuniculus [1] (Stomach), half-maximal inhibition (IC50) was put at 1 µM. Moreover, the inhibition in vivo at 1 mg/kg in the series filed under Canis familiaris [7] amounted to 95%. Also, the inhibition in vivo at 0.3 mg/kg in the series “animal or person” was 74%. Besides, the inhibition in vivo at 0.5 mg/kg in the series filed under Rattus norvegicus [4] worked out at 57%.
In the series filed under Oryctolagus cuniculus [14], `COc1cccnc1C[S+]([O-])c1nc2cscc2[nH]1` (stereo not given) had an IC50 of 290 µM. Besides, the inhibition in vivo at 0.5 mg/kg in the series listed under Rattus norvegicus [4] was 59%.
For `COc1ccc2[nH]c([S+]([O-])Cc3ncc(C)c(OC)c3C)nc2c1` (stereo not given) [OMEPRAZOLE], the values for the half-life in series [8], in series [9] and in series [10] were 12 h, 2.26 h and 17 h, respectively. In addition, the results for the ED50 with Canis familiaris [15] and in the series listed under Canis familiaris [13] were 0.25 mg/kg and 0.1 mg/kg, respectively.
For orientation: inhibition means the relative decrease from the control value, in per cent. As for `COc1c(Cl)cnc(C[S+]([O-])c2nc3cscc3[nH]2)c1C` (stereo not given), the inhibition in series [16] is -5%. In the series listed under Oryctolagus cuniculus [1] (Stomach), half-maximal inhibition (IC50) required 230 µM. Besides, in the series listed under Canis familiaris [7], the inhibition in vivo at 1 mg/kg amounted to 24%. Moreover, the inhibition in vivo at 0.5 mg/kg in the series listed under Rattus norvegicus [4] came out at 43%.
As for `COc1c(Br)cnc(C[S+]([O-])c2nc3cscc3[nH]2)c1C` (stereo not given), in series [16], the inhibition is -5%. In the series listed under Oryctolagus cuniculus [1] (Stomach), this molecule displayed an IC50 of 81 µM. The inhibition in vivo at 0.5 mg/kg in the series listed under Rattus norvegicus [4] turned out to be 37%.
Take `[O-][S+](Cc1cc(OCC(F)(F)C(F)(F)C(F)(F)C(F)F)ccn1)c1nc2cscc2[nH]1` (stereo not given): the IC50 in the series listed under Oryctolagus cuniculus [1] (Stomach) was found to be 3 µM; in series [3], 2 µM.
As for `COc1cc(C[S+]([O-])c2nc3cscc3[nH]2)ncc1Cl` (stereo not given), in the series filed under Oryctolagus cuniculus [1] (Stomach), the midpoint of inhibition, the IC50, lay at 31 µM. In addition, the pKa in the series “physchem” stood at 3.44. In the series filed under Canis familiaris [7], the inhibition in vivo at 1 mg/kg came to 55%. For the same molecule, the inhibition in vivo at 0.3 mg/kg in the series “animal or person” is 38%. For the same molecule, in the series listed under Rattus norvegicus [4], the inhibition in vivo at 0.5 mg/kg was determined as 58%.
`Cc1ccc(C[S+]([O-])c2nc3cscc3[nH]2)nc1` (stereo not given) displayed an IC50 in the series filed under Oryctolagus cuniculus [1] (Stomach) of 9 µM. Moreover, the pKa in the series “physchem” is 3.26. In the series listed under Canis familiaris [13], this molecule registered an ED50 of 0.11 mg/kg. In addition, in “animal or person”, the inhibition in vivo at 0.3 mg/kg stood at 72%. Moreover, in the series listed under Rattus norvegicus [4], the inhibition in vivo at 0.5 mg/kg was 78%.
Consider `COc1c(OCC(F)(F)C(F)(F)C(F)(F)F)ccnc1C[S+]([O-])c1nc2cscc2[nH]1` (stereo not given), for which the IC50 in the series listed under Oryctolagus cuniculus [1] came out at 1.1 µM; in series [3], 7 µM. In addition, in the series filed under Canis familiaris [7], the inhibition in vivo at 1 mg/kg was 66%. Also, the inhibition in vivo at 0.5 mg/kg in the series filed under Rattus norvegicus [4] was 70%.
As for `COc1c(OCC(F)(F)C(F)F)ccnc1C[S+]([O-])c1nc2cscc2[nH]1` (stereo not given), the IC50 in the series listed under Oryctolagus cuniculus [1] came out at 0.6 µM; in series [3], 3 µM. In addition, the inhibition in vivo at 1 mg/kg in the series listed under Canis familiaris [7] is 47%. For the same molecule, the inhibition in vivo at 0.3 mg/kg in “animal or person” amounted to 58%. In addition, in the series filed under Rattus norvegicus [4], the inhibition in vivo at 0.5 mg/kg stood at 79%.
Take `COc1c(OCC(F)(F)F)ccnc1C[S+]([O-])c1nc2cscc2[nH]1` (stereo not given): the values for the IC50 (in the series filed under Oryctolagus cuniculus [1] (Stomach); in [3]) were 2.5 µM and 4 µM, respectively. In “physchem”, this molecule gave a pKa of 3.52. In the series listed under Canis familiaris [13], this molecule showed an ED50 of 0.08 mg/kg. Besides, the inhibition in vivo at 0.3 mg/kg in “animal or person” amounted to 85%. In addition, the inhibition in vivo at 0.5 mg/kg in the series filed under Rattus norvegicus [4] turned out to be 64%.
For the molecule `[O-][S+](Cc1cc(OCc2ccc(C(F)(F)F)cc2)ccn1)c1nc2cscc2[nH]1` (stereo not given), half-maximal inhibition in the series listed under Oryctolagus cuniculus [1] (Stomach) (IC50) required 0.6 µM. Moreover, the pKa in “physchem” came to 3.74. The inhibition in vivo at 1 mg/kg in the series listed under Canis familiaris [7] is 94%. Moreover, in the series listed under Rattus norvegicus [4], the inhibition in vivo at 0.5 mg/kg stood at 80%.
Consider `COc1ccnc(C[S+]([O-])c2nc3cscc3[nH]2)c1Cl` (stereo not given), for which the IC50 in the series listed under Oryctolagus cuniculus [1] (Stomach) is 1 µM. The molecule also gave a pKa in the series “physchem” of 3.55. It took a dose of 0.1 mg/kg to reach the 50% effect level in the series listed under Canis familiaris [13] (ED50). For the same molecule, in the series filed under Canis familiaris [7], the inhibition in vivo at 1 mg/kg came out at 36%. Besides, the inhibition in vivo at 0.3 mg/kg in the series “animal or person” was 82%. Further, in the series listed under Rattus norvegicus [4], the inhibition in vivo at 0.5 mg/kg is 71%.
